Series [1] in a line: Reversed phase TLC lipophilicity measurement on Leucaena oil device (LOD). The conditions noted are these: for ICHI (isocratic chromatographic hydrophobicity index): LOD R1 to R10, methanol in water mobile phase. The procedure: Silica gel GF254 plates (5×10 cm) are successively developed by ascending development in the oil solution. Ten consecutive runs were carried out in each of the six tanks set up to prepare the Leucaena oil device (LOD).
The plates were air-dried at room temperature and the plates were developed in saturated development tanks containing 10 mL of the mobile phase. The plates were developed over a path of 7 cm and allowed to air-dry before visualization under UV light at 254 nm. The retardation factor (Rf) was then measured. The development was performed in duplicate.
Rm was computed by the equation: […]
The linear regression of Rm versus organic modifier fraction is governed by the Soczewinski Wachmeister equation: […]
The mobile phase used consisted of various concentrations of methanol in 0.1N HCl and Phosphate buffer pH 6.8.
(§1) Data analysis was done as previously described, Rf was transformed to Rm and linear regression analysis implemented to determine the lipophilicity parameter, ICHI.
(§2) Data analysis was performed as described earlier under data analysis in previous sections. Rf is transformed to Rm and linear regression of Rm versus methanol fraction produces linear regression parameters that provide the lipophilicity metric.

How the values of series [2] were obtained: The mobile phase used consisted of various concentrations of methanol in 0.1N HCl and phosphate buffer pH 6.8.
as §1, §2

The conditions of series [3]: 48 h.
For series [4] the following is noted: cited from earlier work.
The conditions of series [5]: humans, cited from earlier work.
The conditions of series [6]: concomitant intake of kolanut with halofantrine; cited from earlier work.
The conditions of series [7]: dogs, cited from earlier work.
Where [8] appears, read: halofantrine administered postprandially.

The values below come from patent US20260094676A1, “METHOD AND APPARATUS FOR PREDICTING DRUG BIOAVAILABILITY” (LIVERPOOL JOHN MOORES UNIVERSITY, priority 2022, published 2026).

Structures can show the parent of a compound that is named as a salt. Where two headings read alike, the source gives them in different places.

As for `Oc1ccc2ccccc2c1` [β-naphthol], in series [1], the “ICHI (isocratic chromatographic hydrophobicity index)” value is recorded as 0.46-0.48.

As for `COc1ccc2cc(CCC(C)=O)ccc2c1` [nabumetone], the “ICHI (isocratic chromatographic hydrophobicity index)” value in series [1] is 0.61-0.63.

In the case of `Oc1cccc2ccccc12` [α-naphthol], in series [1], the “ICHI (isocratic chromatographic hydrophobicity index)” value is on record as 0.52-0.54.

For the molecule `CC(=O)N1CCN(c2ccc(OCC3COC(Cn4ccnc4)(c4ccc(Cl)cc4Cl)O3)cc2)CC1` (stereo not drawn) [ketoconazole], the figures for the “Lipophilicity classification based on ICHI” value in series [2] and in series [1] were “lipophilic” and “amphiphilic”, respectively. The “ICHI, mean value” in series [2] (ODS, mean over 0.1N HCl and phosphate buffer pH 6.8 mobile phases) was determined as 0.86; in series [1] (LOD, mean over 0.1N HCl and phosphate buffer pH 6.8 mobile phases), 0.70. Also, the “critical point ('critical micellar concentration') of ketoconazole for halofantrine solubility” value in series [3] is reported as 0.015%.

As to `CCCCN(CCCC)CCC(O)c1cc2c(Cl)cc(Cl)cc2c2cc(C(F)(F)F)ccc12` (stereo not drawn) [halofantrine], the “plasma Hfm/Hf AUC (0-72 h) ratio” value in series [4] (fasted oral administration of Hf with ketoconazole) is reported as “less than 0.05”; in series [4] (fasted oral administration of Hf without ketoconazole), 0.56. Besides, the “Solubility interaction quotient (Qsi), fold more lipophilic than caffeine” value amounted to 2 fold in series [2] (ODS, halofantrine versus caffeine) and 24 fold in series [1] (LOD, halofantrine versus caffeine). The molecule further displayed a Qsi in series [1] (LOD, ketoconazole and halofantrine) of 1.42. Moreover, the “increase of oral bioavailability” value in series [5] (administered postprandially) is recorded as 3 fold; in series [7] (administered postprandially), 12 fold. Further, the “Cmax, effect of concomitant kolanut” value in series [6] is listed as “significantly decreased”. Also, the “t1/2, effect of concomitant kolanut” value in series [6] was “no significant effect”. The “tmax, effect of concomitant kolanut” value in series [6] is recorded as “no significant effect”.

For the molecule `O=C(O)c1cn(C2CC2)c2cc(N3CCNCC3)c(F)cc2c1=O` [ciprofloxacin hydrochloride], the Qsi result in series [1] (LOD, combination with model Garcinia bioflavonoid) was “about 10”.

With `CCCCNCCC(O)c1cc2c(Cl)cc(Cl)cc2c2cc(C(F)(F)F)ccc12` (stereo not drawn) [desbutylhalofantrine], in series [5] (setting [8]), the “decrease of proportional formation of desbutyl metabolite” value was 2.4 fold. For the same molecule, in series [6], the “Cmax, effect of concomitant kolanut” value is recorded as “significantly decreased”; the “t1/2, effect of concomitant kolanut” value is listed as “no significant effect”; the “tmax, effect of concomitant kolanut” value is recorded as “no significant effect”. The “decrease of proportional formation of desbutyl metabolite” value in series [7] (setting [8]) is 6.8 fold.
